Test results taken from patent US5656603A (Loyola University of Chicago, priority 1995, dated 1997).

Molecular target: T1, purified bovine lung membrane-bound aminopeptidase P (Bos taurus, UniProt E1B735)
T1 construct: from tissue; host or cells: bovine lung
T1 sequence (E1B735 22-673): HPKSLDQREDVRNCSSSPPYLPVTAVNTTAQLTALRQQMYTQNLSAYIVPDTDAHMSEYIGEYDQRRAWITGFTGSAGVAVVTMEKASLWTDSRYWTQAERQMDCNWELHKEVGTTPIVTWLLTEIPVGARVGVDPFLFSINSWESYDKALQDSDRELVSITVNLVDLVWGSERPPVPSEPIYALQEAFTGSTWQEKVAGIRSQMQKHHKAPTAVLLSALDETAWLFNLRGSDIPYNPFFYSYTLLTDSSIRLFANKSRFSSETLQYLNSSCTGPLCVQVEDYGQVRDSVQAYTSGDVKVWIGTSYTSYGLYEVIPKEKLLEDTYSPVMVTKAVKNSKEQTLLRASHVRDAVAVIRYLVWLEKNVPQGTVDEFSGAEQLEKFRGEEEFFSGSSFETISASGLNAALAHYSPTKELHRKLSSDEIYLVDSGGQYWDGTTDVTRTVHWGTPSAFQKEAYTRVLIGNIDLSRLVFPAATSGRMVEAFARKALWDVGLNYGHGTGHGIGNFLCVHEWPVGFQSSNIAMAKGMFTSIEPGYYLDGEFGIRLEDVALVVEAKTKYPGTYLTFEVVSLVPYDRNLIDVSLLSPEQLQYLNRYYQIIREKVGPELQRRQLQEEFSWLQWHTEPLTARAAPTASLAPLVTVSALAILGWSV
Experiment: Aminopeptidase P inhibition, release of arginine from Arg-Pro-Pro (fluorescent assay)
Format: biochemical
Protocol: The IC50 of the compound of the present invention in relation to aminopeptidase P was also determined. […] The specificity of the compound of the present invention for other aminopeptidases was similarly determined as described in the Experimental Procedures herein. […] The following enzymes had IC50 values>800 μM: aminopeptidase A, angiotensin converting enzyme, dipeptidyl-peptidase I-like activity, bestatin-sensitive/amastatin-insensitive membrane dipeptidase (29), microsomal dipeptidase, endopeptidase 24.11, endopeptidase 24.15, and prolyl oligopeptidase.
Enzymes--Membrane-bound aminopeptidase P was purified to homogeneity from bovine lung (14) and from rat lung. Partially purified membrane-bound aminopeptidase P from human lung was obtained by treatment of lung microsomes with phosphatidylinositol-specific phospholipase C (B. thuringiensis) (ICN, Costa Mesa, Calif.) followed by centrifugation as described previously (14). Membrane dipeptidase was purified from rat lung microsomes (manuscript in preparation). Recombinant E. coli aminopeptidase P (22) and purified lamb kidney prolyl oligopeptidase (23) were generally supplied by Dr. Tadashi Yoshimoto (Nagasaki University). Purified porcine kidney prolidase and purified porcine kidney aminopeptidase M was obtained from Sigma (St. Louis, Mo.).
Enzyme Kinetics--Aminopeptidase P activity was determined by measuring the release of arginine from Arg-Pro-Pro by a fluorescent assay described previously (14). […] Each mixture was run in duplicate. Aliquots were removed from each incubation mixture at various times and assayed for the amount of arginine present to determine the reaction velocity. In general, reaction velocities were calculated from data representing less than 20% cleavage of substrate. Ki and Ki ' (=αKi) were determined from plots of 1/v versus concentration of inhibitor "i" (26) and S/v versus concentration of inhibitor "i" (27), respectively. These parameters were also determined from the slope replot and 1/v-intercept replot, respectively, of the 1/v versus 1/S plot (28). See e.g., FIG. 1B. The values from the two treatments of the data were averaged for each experiment. Experiments for each enzyme preparation were performed twice and the results averaged.

## C[C@H](NC(=O)[C@@H]1CCCN1C(=O)[C@@H]1CCCN1C(=O)[C@@H](O)[C@H](N)Cc1ccccc1)C(N)=O [apstatin, N-[(2S, 3R)-3-amino-2-hydroxy-4-phenylbutanoyl]-L-prolyl-L-prolyl-Lalaninamide]
Bovine lung aminopeptidase P, cleavage of 0.5 μM Arg-Pro-Pro in 0.1M Hepes, pH 8.0 at 37° C.
  IC50: 9.4 µM
Bovine lung aminopeptidase P, slope and 1/v-axis intercept replots
  type of inhibition: linear mixed-type
Bovine lung, purified membrane-bound form
  α (αKi = equilibrium constant for enzyme-inhibitor binding at infinite substrate concentration): 4.2
Bovine lung, purified membrane-bound form, substrate Arg-Pro-Pro, 0.1 M Hepes pH 8.0, 39° C.
  Ki: 7.8 µM
